Data published in article PMC8459971, “Evaluation of the hepatotoxicity of the novel GPR40 (FFAR1) agonist CPL207280 in the rat and monkey” (PLoS ONE, 2021).
Values joined by “and” are separate entries in the source; they are usually repeats but may differ in a detail not shown here. Equal values may be shown once.

What was measured:
in vivo = conditions: for AUC(0-t): AUC24h (Mean); for AUC24h (Mean): both
[1] = Viability assay, human primary hepatocytes, RT-glo, 48 h; assay type: cell-based; conditions: human, primary human hepatocytes, sheet Fig1 panel C (primary human hepatocytes), 48 h, replicates, read-out: viability, normalized to DMSO-treated controls
Protocol: (§1) To study the viability of the liver cells, 5 × 10^3 HepG2 (ATCC®) or human primary cells (ThermoFisher Scientific, USA) were seeded in 100 μL of DMEM media (Gibco; Thermo Fisher Scientific, USA) supplemented with fetal bovine serum (FBS)- in a 96-well plate. […] The experiments were performed in triplicates.

[2] = test system: human primary hepatocytes; test: as above; assay type: cell-based; conditions: for viability, normalized to DMSO-treated controls: sheet Fig1 panel C (primary human hepatocytes), replicates, in % (unit assumed)
Protocol: as §1

MRP4 = molecular target: T1, MRP4 (Homo sapiens, UniProt O15439); test: Vesicular transport inhibition assay, MRP4; conditions: for Accumulation (counts per minute; CPM) with AMP / Accumulation (counts per minute; CPM) with ATP: MRP4;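 further: membrane vesicles with MRP4 incubated with compound and probe substrate plus 4 mM ATP, or AMP as passive-diffusion background, vesicular substrate uptake read by liquid scintillation counting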;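 on Accumulation (counts per minute; CPM) with AMP: ATP 4 mM vs AMP background separates transporter uptake from diffusion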;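 on Accumulation (counts per minute; CPM) with ATP: ATP 4 mM vs AMP background separates transporter uptake from diffusion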
T1 sequence (O15439 1-1325): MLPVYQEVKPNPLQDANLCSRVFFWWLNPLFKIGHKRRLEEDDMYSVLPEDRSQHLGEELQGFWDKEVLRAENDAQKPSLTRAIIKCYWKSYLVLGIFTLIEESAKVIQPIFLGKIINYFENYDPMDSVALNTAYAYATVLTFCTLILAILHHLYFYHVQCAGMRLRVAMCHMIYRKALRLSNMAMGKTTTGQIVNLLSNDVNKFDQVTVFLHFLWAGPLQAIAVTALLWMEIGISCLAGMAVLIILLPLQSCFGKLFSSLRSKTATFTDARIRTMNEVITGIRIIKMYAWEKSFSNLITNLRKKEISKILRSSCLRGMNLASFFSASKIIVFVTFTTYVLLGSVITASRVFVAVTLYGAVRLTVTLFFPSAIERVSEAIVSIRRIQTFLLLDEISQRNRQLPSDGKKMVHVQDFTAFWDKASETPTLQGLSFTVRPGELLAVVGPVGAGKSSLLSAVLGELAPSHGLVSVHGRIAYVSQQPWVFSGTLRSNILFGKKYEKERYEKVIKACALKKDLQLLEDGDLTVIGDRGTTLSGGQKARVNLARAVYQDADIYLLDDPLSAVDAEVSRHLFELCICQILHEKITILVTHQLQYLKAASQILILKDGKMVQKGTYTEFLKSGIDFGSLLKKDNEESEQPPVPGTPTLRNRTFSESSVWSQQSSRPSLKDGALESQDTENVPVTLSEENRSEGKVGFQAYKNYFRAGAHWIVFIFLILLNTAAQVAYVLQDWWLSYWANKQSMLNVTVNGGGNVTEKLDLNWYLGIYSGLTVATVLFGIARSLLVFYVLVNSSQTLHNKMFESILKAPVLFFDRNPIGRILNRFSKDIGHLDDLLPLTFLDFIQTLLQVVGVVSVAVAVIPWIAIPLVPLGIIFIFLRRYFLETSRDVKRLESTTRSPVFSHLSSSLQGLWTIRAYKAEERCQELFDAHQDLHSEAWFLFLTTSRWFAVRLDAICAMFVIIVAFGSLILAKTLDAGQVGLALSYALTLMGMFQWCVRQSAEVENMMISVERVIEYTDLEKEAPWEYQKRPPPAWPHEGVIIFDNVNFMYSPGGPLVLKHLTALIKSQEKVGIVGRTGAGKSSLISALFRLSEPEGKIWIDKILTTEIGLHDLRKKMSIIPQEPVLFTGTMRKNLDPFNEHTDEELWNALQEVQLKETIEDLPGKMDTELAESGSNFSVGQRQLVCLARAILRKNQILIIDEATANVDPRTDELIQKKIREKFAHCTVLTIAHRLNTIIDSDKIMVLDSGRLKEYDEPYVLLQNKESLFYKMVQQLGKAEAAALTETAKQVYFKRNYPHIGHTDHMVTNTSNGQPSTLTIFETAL
Protocol: In the vesicular transport inhibition assay (for BSEP, MRP) compounds were incubated with membrane vesicle preparations and the probe substrate. Incubations were carried out in the presence of 4 mM ATP or AMP to distinguish between transporter-mediated uptake and passive diffusion into the vesicles. For MRP2 and MRP3, reactions were carried out in the presence of 2 mM glutathione. Compounds were added to the reaction mixture in 0.75 μL of solvent (1% of the final incubation volume). […] Reactions were initiated by the addition of 25 μL of 12 mM MgATP (or 12 mM AMP in assay buffer as a background control) and preincubated separately. Reactions were quenched by the addition of 200 μL of ice-cold washing buffer and immediate filtration via glass fiber filters mounted on a 96-well plate (filter plate). The filters were washed (5 × 200 μL of ice-cold washing buffer), dried, and the amount of substrate inside the filtered vesicles was determined by liquid scintillation counting.

OATP1A2 = OATP1A2 (Homo sapiens, UniProt P46721); test: Uptake transporter inhibition assay, OATP1A2; conditions: for Accumulation (counts per minute; CPM) HEK293FT-MOCK / Accumulation (counts per minute; CPM) HEK293FT-OATP1A2: OATP1A2;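 further: cellular uptake of a radiolabeled probe substrate in HBSS pH 7.4 at 37 °C with test compound or solvent, measured by liquid scintillation counting of cell lysates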
Protocol: For the uptake transporter inhibition assay, cells were washed twice with 100 μL of the appropriate buffer (HK, pH 7.4) for OATP1B1, followed by HBSS (pH 7.4) for (NTCP, OAT1, OAT2v1, OATP1A2, and OATP1B3). Uptake experiments were carried out at 37 ± 1°C in 50 μL of the respective buffer containing the probe substrate and the compound or solvent. […] After the experiment, cells were washed twice with 100 μL of cold appropriate buffer and lysed with 50 μL of 0.1 M NaOH. Radiolabeled probe substrate transport was determined by measuring an aliquot (35 μL) from each well for liquid scintillation counting.

[3] = Stability in microsomes, mini pig; assay type: in vitro ADME; conditions: for average DEG [%]: minipig microsomes, with cofactors
Protocol: The final incubation volume was 500 μL. Two control compounds (verapamil and donepezil) were included for each microsomal species, along with the appropriate vehicle control. The reactions were terminated by transferring 50 μL of incubate to 100 μL methanol containing an internal standard (metoprolol) at appropriate time points (0, 10, 20, 40, 60, and 120 min for the test compound and 0, 5, 10, 20, 40, and 60 min for the control compounds). The termination plates were centrifuged at 4000 x g at 4°C for 30 min to precipitate the protein. The supernatants were then collected for analysis, and LC-MS/MS was used for detection purposes. The system consisted of an Acquity™ Binary Solvent Manager, Acquity™ 4-position heated column manager, 2777 Ultra High Pressure Autosampler, and a Xevo-TQ MS triple quadrupole mass spectrometer (Waters Ltd., Herts, UK). This process was carried out twice.

[4] = Mini pig microsomes, mean n = 2

OATP1A2, sequence (P46721 whole entry): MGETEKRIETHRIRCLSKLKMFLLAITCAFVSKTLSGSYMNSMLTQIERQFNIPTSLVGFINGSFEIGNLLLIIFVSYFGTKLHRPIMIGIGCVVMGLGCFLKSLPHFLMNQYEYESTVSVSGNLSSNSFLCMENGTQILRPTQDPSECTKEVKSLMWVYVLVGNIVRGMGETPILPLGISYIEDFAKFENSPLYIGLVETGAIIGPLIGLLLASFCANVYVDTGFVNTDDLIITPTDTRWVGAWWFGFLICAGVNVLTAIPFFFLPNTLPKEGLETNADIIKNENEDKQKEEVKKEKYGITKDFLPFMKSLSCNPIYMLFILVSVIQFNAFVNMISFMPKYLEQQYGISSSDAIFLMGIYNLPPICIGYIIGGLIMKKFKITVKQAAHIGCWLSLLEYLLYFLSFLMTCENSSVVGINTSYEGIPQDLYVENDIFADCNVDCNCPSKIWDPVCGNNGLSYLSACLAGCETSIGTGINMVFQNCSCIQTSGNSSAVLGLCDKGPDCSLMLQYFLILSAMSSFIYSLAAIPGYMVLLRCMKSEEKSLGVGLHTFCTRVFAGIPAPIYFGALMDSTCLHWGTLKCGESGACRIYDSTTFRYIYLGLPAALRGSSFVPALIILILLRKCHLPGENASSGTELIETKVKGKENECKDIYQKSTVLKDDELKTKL

## CC#C[C@@H](CC(=O)O)c1ccc(OCC(C)=C(C)C)cc1 [CPL207280]
In vivo
  Accumulation in rat plasma after repeat dose: No
In vivo; both sexes, Wistar Han, rat, 1200 mg/kg, Cmax
  Cmax at 14 days: 250 µg/mL
In vivo; both sexes, Wistar Han, rat, po, 150 mg/kg, Cmax
  Cmax: 125 µg/mL
In vivo; both sexes, Wistar Han, rat, po, 300 mg/kg/day
  AUC(0-t): 2350 µg·h/mL
In vivo; both sexes, Wistar Han, rat, po, 300 mg/kg/day, Cmax (Mean)
  Cmax: 227 µg/mL
In vivo; both sexes, Wistar Han, rat, po, 600 mg/kg/day
  AUC(0-t): 2920 µg·h/mL
In vivo; both sexes, Wistar Han, rat, po, 600 mg/kg/day, Cmax (Mean)
  Cmax: 257 µg/mL
In vivo; both sexes, Wistar Han, rat, po, 1200 mg/kg, Cmax
  Cmax: 222 µg/mL
In vivo; both sexes, Wistar Han, rat, po, 1200 mg/kg, exposure - AUC
  AUC: 2590 µg·h/mL
In vivo; Wistar Han, rat, po, 300 mg/kg/day
  AUC24h (Mean): 1605030 ng x hr/mL
In vivo; Wistar Han, rat, po, 600 mg/kg/day
  AUC24h (Mean): 2156620 ng x hr/mL
[1]; 0.78 uM
  viability at 48 h, 0.78 µM: 109%
[1]; 3.125 uM
  viability at 48 h, 3.125 µM: 111%
[1]; 6.25 uM
  viability at 48 h, 6.25 µM: 108%
[1]; 25 uM
  viability at 48 h, 25 µM: 107%
[1]; 50 uM
  viability at 48 h, 50 µM: 94.1%
[1]; 100 uM
  viability at 48 h, 100 µM: 80.6%
[2]; human primary hepatocytes, 48 h, concentrations up to 10 μM
  viability: Neither compound exhibited altered viability
[2]; primary cells, 48 h, 100 μM
  reduction of viability: 20%
[2]; 48 h, 0.78 uM
  viability, normalized to DMSO-treated controls: 113.603 and 101.249
[2]; 48 h, 3.125 uM
  viability, normalized to DMSO-treated controls: 114.319 and 102.513
[2]; 48 h, 6.25 uM
  viability, normalized to DMSO-treated controls: 112.73 and 100.537
[2]; 48 h, 25 uM
  viability, normalized to DMSO-treated controls: 106.605 and 99.5091
[2]; 48 h, 50 uM
  viability, normalized to DMSO-treated controls: 95.5759 and 86.1766
[2]; 48 h, 100 uM
  viability, normalized to DMSO-treated controls: 81.3191 and 75.1172
[2]; summary comparison CPL207280 vs TAK-875
  Toxicity for human hepatocytes: <
MRP4
  IC50: 131 µM
  fold less inhibitory potency than TAK-875, MRP4: at least 10 fold
MRP4; conc 0.10 µM
  Accumulation (counts per minute; CPM) with AMP: 1154 CPM and 1110 CPM
  Accumulation (counts per minute; CPM) with ATP: 5335 CPM and 5537 CPM
MRP4; conc 1.00 µM
  Accumulation (counts per minute; CPM) with AMP: 1207 CPM and 1074 CPM
  Accumulation (counts per minute; CPM) with ATP: 5159 CPM and 5701 CPM
MRP4; conc 3.00 µM
  Accumulation (counts per minute; CPM) with AMP: 1157 CPM and 1113 CPM
  Accumulation (counts per minute; CPM) with ATP: 5157 CPM and 5321 CPM
MRP4; conc 10.00 µM
  Accumulation (counts per minute; CPM) with AMP: 1132 CPM and 1046 CPM
  Accumulation (counts per minute; CPM) with ATP: 4884 CPM and 5225 CPM
MRP4; conc 30.00 µM
  Accumulation (counts per minute; CPM) with AMP: 1054 CPM and 1003 CPM
  Accumulation (counts per minute; CPM) with ATP: 4460 CPM and 4110 CPM
MRP4; conc 100.00 µM
  Accumulation (counts per minute; CPM) with AMP: 1090 CPM and 1013 CPM
  Accumulation (counts per minute; CPM) with ATP: 3600 CPM and 3817 CPM
MRP4; conc 300.00 µM
  Accumulation (counts per minute; CPM) with AMP: 1018 CPM and 920 CPM
  Accumulation (counts per minute; CPM) with ATP: 2078 CPM and 2196 CPM
OATP1A2
  IC50: 118 µM
  fold less inhibitory potency than TAK-875, OATP1A2: at least 10 fold
OATP1A2; conc 0.10 µM
  Accumulation (counts per minute; CPM) HEK293FT-MOCK: 191 CPM and 198 CPM
  Accumulation (counts per minute; CPM) HEK293FT-OATP1A2: 9941 CPM and 9363 CPM
OATP1A2; conc 1.00 µM
  Accumulation (counts per minute; CPM) HEK293FT-MOCK: 175 CPM and 167 CPM
  Accumulation (counts per minute; CPM) HEK293FT-OATP1A2: 9582 CPM and 8309 CPM
OATP1A2; conc 3.00 µM
  Accumulation (counts per minute; CPM) HEK293FT-MOCK: 170 CPM and 189 CPM
  Accumulation (counts per minute; CPM) HEK293FT-OATP1A2: 9105 CPM and 8526 CPM
OATP1A2; conc 10.00 µM
  Accumulation (counts per minute; CPM) HEK293FT-MOCK: 199 CPM and 184 CPM
  Accumulation (counts per minute; CPM) HEK293FT-OATP1A2: 8813 CPM and 8062 CPM
OATP1A2; conc 30.00 µM
  Accumulation (counts per minute; CPM) HEK293FT-MOCK: 160 CPM and 178 CPM
  Accumulation (counts per minute; CPM) HEK293FT-OATP1A2: 6805 CPM and 7468 CPM
OATP1A2; conc 100.00 µM
  Accumulation (counts per minute; CPM) HEK293FT-MOCK: 179 CPM and 165 CPM
  Accumulation (counts per minute; CPM) HEK293FT-OATP1A2: 5379 CPM and 5182 CPM
OATP1A2; conc 300.00 µM
  Accumulation (counts per minute; CPM) HEK293FT-MOCK: 144 CPM and 136 CPM
  Accumulation (counts per minute; CPM) HEK293FT-OATP1A2: 2696 CPM and 2783 CPM
[3]; [4]
  half-life at 3 μM: 31 min
  microsomal CLint at 3 μM: 45 µL/min/mg
[3]; 0 min
  average DEG [%]: 100.0%
[3]; 20 min
  average DEG [%]: 67.0%
[3]; 40 min
  average DEG [%]: 40.9%
[3]; 60 min
  average DEG [%]: 26.3%
